Results from publication PMC9549714 (iScience, 2022).

How the values were obtained:
[1] = target: T1, PPAT (phosphoribosyl pyrophosphate amidotransferase) (Homo sapiens, UniProt Q06203); test: glutamate production from glutamine and PRPP, glutamate assay kit; assay type: biochemical
[2] = target: T1, PPAT (phosphoribosyl pyrophosphate amidotransferase); test: PPAT activity assay, presumably as above; assay type: biochemical

T1 sequence (Q06203 12-517): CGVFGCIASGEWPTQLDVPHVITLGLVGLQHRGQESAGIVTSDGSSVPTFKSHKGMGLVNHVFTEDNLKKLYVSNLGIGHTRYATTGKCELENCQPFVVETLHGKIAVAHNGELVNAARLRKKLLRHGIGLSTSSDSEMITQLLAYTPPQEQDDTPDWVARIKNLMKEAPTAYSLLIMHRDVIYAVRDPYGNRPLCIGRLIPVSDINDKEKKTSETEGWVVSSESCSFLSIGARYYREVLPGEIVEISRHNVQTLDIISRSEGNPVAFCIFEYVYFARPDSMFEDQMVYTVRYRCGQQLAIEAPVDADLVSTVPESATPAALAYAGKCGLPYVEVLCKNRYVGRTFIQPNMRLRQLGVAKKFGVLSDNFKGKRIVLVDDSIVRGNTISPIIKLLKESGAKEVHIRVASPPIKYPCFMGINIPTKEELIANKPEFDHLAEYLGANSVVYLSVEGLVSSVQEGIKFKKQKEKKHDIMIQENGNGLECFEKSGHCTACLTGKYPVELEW

| IC50 [1] | IC50 [2] | SMILES |
| --- | --- | --- |
| 7.5 µM |  | Cc1cc2nc3c(=O)[nH]c(=O)nc-3n(C[C@H](O)[C@H](O)[C@H](O)COP(=O)(O)O)c2cc1C [ZINC8551105, riboflavin 5′-monophosphate] |
|  | 49.9 µM | Cc1cc2nc3c(=O)[nH]c(=O)nc-3n(C[C@H](O)[C@H](O)[C@H](O)CO)c2cc1C [riboflavin] |
